Reference: US20240376099A1, “COMPOUNDS AND COMPOSITIONS AS INHIBITORS OF ENDOSOMAL TOLL-LIKE RECEPTORS” (Novartis AG, priority 2016, published 2024)

Target: T1, TLR9 (Homo sapiens, UniProt Q9NR96)
T1 construct: Fresh blood was collected from normal human donors; endogenous in cells; host or cells: human PBMCs from fresh donor blood
T1 sequence (Q9NR96 26-1032): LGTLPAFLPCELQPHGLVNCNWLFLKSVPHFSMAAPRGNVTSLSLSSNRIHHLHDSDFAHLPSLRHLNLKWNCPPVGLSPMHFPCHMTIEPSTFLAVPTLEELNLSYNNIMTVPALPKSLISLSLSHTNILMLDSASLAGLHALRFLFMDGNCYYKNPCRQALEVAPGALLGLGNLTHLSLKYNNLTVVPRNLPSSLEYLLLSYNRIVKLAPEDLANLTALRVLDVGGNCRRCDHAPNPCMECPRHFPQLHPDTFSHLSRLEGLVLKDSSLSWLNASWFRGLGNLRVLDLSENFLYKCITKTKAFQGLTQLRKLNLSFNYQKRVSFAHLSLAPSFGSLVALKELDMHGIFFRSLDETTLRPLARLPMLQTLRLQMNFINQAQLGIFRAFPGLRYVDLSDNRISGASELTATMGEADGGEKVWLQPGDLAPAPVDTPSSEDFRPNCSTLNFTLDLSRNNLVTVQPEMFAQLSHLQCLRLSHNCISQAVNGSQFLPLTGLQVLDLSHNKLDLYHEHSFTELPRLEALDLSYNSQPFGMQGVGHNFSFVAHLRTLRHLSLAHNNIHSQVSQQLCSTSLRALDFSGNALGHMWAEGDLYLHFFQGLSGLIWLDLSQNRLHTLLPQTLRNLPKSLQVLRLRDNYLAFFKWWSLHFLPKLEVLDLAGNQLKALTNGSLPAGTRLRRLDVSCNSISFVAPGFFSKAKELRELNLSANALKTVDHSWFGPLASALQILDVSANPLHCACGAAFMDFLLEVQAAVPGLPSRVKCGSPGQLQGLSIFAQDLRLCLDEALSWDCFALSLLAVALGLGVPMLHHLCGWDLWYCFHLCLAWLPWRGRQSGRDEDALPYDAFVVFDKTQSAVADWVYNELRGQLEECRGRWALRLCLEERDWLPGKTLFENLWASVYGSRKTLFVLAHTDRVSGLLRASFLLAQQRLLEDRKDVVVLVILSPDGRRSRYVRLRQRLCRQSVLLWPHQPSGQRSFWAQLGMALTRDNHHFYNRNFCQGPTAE
Test: huPBMC TLR9 Antagonist IFNα Assay
Format: cell-based
Conditions: human PBMCs stimulated with ODN2216 0.3 μM, 14-16 hrs; IFNα2b AlphaLISA read-out
Procedure, shortened: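 Human PBMCs from fresh donor blood (150,000 cells/well) stimulated 14–16 h at 37 °C with DOTAP-complexed ssRNA40 (final 1 μg/ml for TLR8, 10 μg/mL for TLR7) or ODN2216 (final 0.3 μM, TLR9), 0.25% DMSO, ten-point 1/3 compound dilutions. Supernatant IL-6 read by HTRF (TLR8); IFNα by IFNα2b AlphaLISA (TLR7/TLR9).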

Compound	IC50 [nM]
Cc1cc(N2CCc3c(c(C)nn3CC34CCC(N)(CC3)CC4)C2)c2cnn(C)c2n1 [Compound No. 1, 4-((5-(1,6-dimethyl-1H-pyrazolo[3,4-b]pyridin-4-yl)-3-methyl-4,5,6,7-tetrahydro-1H-pyrazolo[4,3-c]pyridin-1-yl)methyl)bicyclo[2.2.2]octan-1-amine]	1520
Cc1cc(N2CCc3c(c(C)nn3CC34CCC(N)(CC3)CC4)C2)c2cn[nH]c2n1 [Compound No. 2, 4-((3-methyl-5-(6-methyl-1H-pyrazolo[3,4-b]pyridin-4-yl)-4,5,6,7-tetrahydro-1H-pyrazolo[4,3-c]pyridin-1-yl)methyl)bicyclo[2.2.2]octan-1-amine]	3130
Cc1cc(N2CCc3c(c(C)nn3CC34CCC(N(C)C(=O)OC(C)(C)C)(CC3)CC4)C2)c2cnn(C)c2n1 [Compound No. 49, tert-butyl (4-((5-(1,6-dimethyl-1H-pyrazolo[3,4-b]pyridin-4-yl)-3-methyl-4,5,6,7-tetrahydro-1H-pyrazolo[4,3-c]pyridin-1-yl)methyl)bicyclo[2.2.2]octan-1-yl)(methyl)carbamate]	3950
Cc1cc(N2CCc3c(c(C)nn3CC34CCC(NC(=O)OC5(C)CC5)(CC3)CC4)C2)c2cnn(C)c2n1 [Compound No. 51, 1-methylcyclopropyl (4-((5-(1,6-dimethyl-1H-pyrazolo[3,4-b]pyridin-4-yl)-3-methyl-4,5,6,7-tetrahydro-1H-pyrazolo[4,3-c]pyridin-1-yl)methyl)bicyclo[2.2.2]octan-1-yl)carbamate]	7550
COc1ccc(Cn2ncc3c(N4CCc5c(c(C)nn5CC56CCC(N)(CC5)CC6)C4)cc(C)nc32)cc1 [Compound No. 53, 4-((5-(1-(4-methoxybenzyl)-6-methyl-1H-pyrazolo[3,4-b]pyridin-4-yl)-3-methyl-4,5,6,7-tetrahydro-1H-pyrazolo[4,3-c]pyridin-1-yl)methyl)bicyclo[2.2.2]octan-1-amine]	1730
Cc1cc(N2CCc3c(c(C)nn3CC34CCC(N5CCOCC5)(CC3)CC4)C2)c2cnn(C)c2n1 [Compound No. 59, 4-(4-((5-(1,6-dimethyl-1H-pyrazolo[3,4-b]pyridin-4-yl)-3-methyl-4,5,6,7-tetrahydro-1H-pyrazolo[4,3-c]pyridin-1-yl)methyl)bicyclo[2.2.2]octan-1-yl)morpholine]	2170
Cc1nn(CC23CCC(N)(CC2)CC3)c2c1CN(c1ccnc(-c3ccc(C#N)cc3)c1)CC2 [Compound No. 84, 4-(4-(1-((4-aminobicyclo[2.2.2]octan-1-yl)methyl)-3-methyl-6,7-dihydro-1H-pyrazolo[4,3-c]pyridin-5(4H)-yl)pyridin-2-yl)benzonitrile]	1840
Cc1cc(N2CCc3c(c(C)nn3CC34CCC(O)(CC3)CC4)C2)c2cnn(C)c2n1 [compound 46, 4-((5-(1,6-dimethyl-1H-pyrazolo[3,4-b]pyridin-4-yl)-3-methyl-4,5,6,7-tetrahydro-1H-pyrazolo[4,3-c]pyridin-1-yl)methyl)bicyclo[2.2.2]octan-1-ol]	> 10000
Cc1cc(N2CCc3nn(CC45CC(N)(C4)C5)c(C)c3C2)c2cnn(C)c2n1 [compound 52, 3-((5-(1,6-dimethyl-1H-pyrazolo[3,4-b]pyridin-4-yl)-3-methyl-4,5,6,7-tetrahydro-2H-pyrazolo[4,3-c]pyridin-2-yl)methyl)bicyclo[1.1.1]pentan-1-amine]	4860
Cc1cc(N2CCc3c(c(C)nn3CC34CCC(NC(C)C)(CC3)CC4)C2)c2cnn(C)c2n1 [compound 55, 4-((5-(1,6-dimethyl-1H-pyrazolo[3,4-b]pyridin-4-yl)-3-methyl-4,5,6,7-tetrahydro-1H-pyrazolo[4,3-c]pyridin-1-yl)methyl)-N-isopropylbicyclo[2.2.]octan-1-amine]	1050
CCOCCN(CCOCC)C12CCC(Cn3nc(C)c4c3CCN(c3cc(C)nc5c3cnn5C)C4)(CC1)CC2 [compound 72, 4-((5-(1,6-dimethyl-1H-pyrazolo[3,4-b]pyridin-4-yl)-3-methyl-4,5,6,7-tetrahydro-1H-pyrazolo[4,3-c]pyridin-1-yl)methyl)-N,N-bis(2-ethoxyethyl)bicyclo[2.2.2]octan-1-amine]	815
Cc1cc(N2CCc3c(c(C)nn3CC34CCC(N5C[C@@H](O)[C@@H](O)C5)(CC3)CC4)C2)c2cnn(C)c2n1 [compound 74, (3S,4R)-1-(4-((5-(1,6-dimethyl-1H-pyrazolo[3,4-b]pyridin-4-yl)-3-methyl-4,5,6,7-tetrahydro-1H-pyrazolo[4,3-c]pyridin-1-yl)methyl)bicyclo[2.2.2]octan-1-yl)pyrrolidine-3,4-diol]	1540

These reach a lower IC50. Values come first.

IC50 [nM]	Compound
680	Cc1cc(N2CCc3c(c(C)nn3CC34CCC(NC(C)CO)(CC3)CC4)C2)c2cnn(C)c2n1 (stereo not drawn) [compound 56, 2-((4-((5-(1,6-dimethyl-1H-pyrazolo[3,4-b]pyridin-4-yl)-3-methyl-4,5,6,7-tetrahydro-1H-pyrazolo[4,3-c]pyridin-1-yl)methyl)bicyclo[2.2.2]octan-1-yl)amino)propan-1-ol]
639	Cc1cc(N2CCc3c(c(C)nn3CC34CCC(N5CCCC5)(CC3)CC4)C2)c2cnn(C)c2n1 [Compound No. 58, 5-(1,6-dimethyl-1H-pyrazolo[3,4-b]pyridin-4-yl)-3-methyl-1-((4-(pyrrolidin-1-yl)bicyclo[2.2.2]octan-1-yl)methyl)-4,5,6,7-tetrahydro-1H-pyrazolo[4,3-c]pyridine]
497	CCNC12CCC(Cn3nc(C)c4c3CCN(c3cc(C)nc5c3cnn5C)C4)(CC1)CC2 [compound 57, 4-((5-(1,6-dimethyl-1H-pyrazolo[3,4-b]pyridin-4-yl)-3-methyl-4,5,6,7-tetrahydro-1H-pyrazolo[4,3-c]pyridin-1-yl)methyl)-N-ethylbicyclo[2.2.]octan-1-amine]
489	Cc1cc(N2CCc3c(c(C)nn3CC34CCC(NC5CCC5)(CC3)CC4)C2)c2cnn(C)c2n1 [compound 54, N-cyclobutyl-4-((5-(1,6-dimethyl-1H-pyrazolo[3,4-b]pyridin-4-yl)-3-methyl-4,5,6,7-tetrahydro-1H-pyrazolo[4,3-c]pyridin-1-yl)methyl)bicyclo[2.2.2]octan-1-amine]
488	CCOCCNC12CCC(Cn3nc(C)c4c3CCN(c3cc(C)nc5c3cnn5C)C4)(CC1)CC2 [compound 71, 4-((5-(1,6-dimethyl-1H-pyrazolo[3,4-b]pyridin-4-yl)-3-methyl-4,5,6,7-tetrahydro-1H-pyrazolo[4,3-c]pyridin-1-yl)methyl)-N-(2-ethoxyethyl)bicyclo[2.2.2]octan-1-amine]
443	Cc1cc(N2CCc3c(c(C)nn3CC34CCC(N5CCC5)(CC3)CC4)C2)c2cnn(C)c2n1 [compound 64, 1-((4-(azetidin-1-yl)bicyclo[2.2.2]octan-1-yl)methyl)-5-(1,6-dimethyl-1H-pyrazolo[3,4-b]pyridin-4-yl)-3-methyl-4,5,6,7-tetrahydro-1H-pyrazolo[4,3-c]pyridine]
442	COCCNC12CCC(Cn3nc(C)c4c3CCN(c3cc(C)nc5c3cnn5C)C4)(CC1)CC2 [Compound No. 69, 4-((5-(1,6-dimethyl-1H-pyrazolo[3,4-b]pyridin-4-yl)-3-methyl-4,5,6,7-tetrahydro-1H-pyrazolo[4,3-c]pyridin-1-yl)methyl)-N-(2-methoxyethyl)bicyclo[2.2.2]octan-1-amine]
376	CNC12CCC(Cn3nc(C)c4c3CCN(c3cc(C)nc5c3cnn5C)C4)(CC1)CC2 [Compound No. 50, 4-((5-(1,6-dimethyl-1H-pyrazolo[3,4-b]pyridin-4-yl)-3-methyl-4,5,6,7-tetrahydro-1H-pyrazolo[4,3-c]pyridin-1-yl)methyl)-N-methylbicyclo[2.2.2]octan-1-amine]
179	Cc1cc(N2CCc3c(c(C)nn3CC34CCC(N(C)C5COC5)(CC3)CC4)C2)c2cnn(C)c2n1 [Compound No. 77, N-(4-((5-(1,6-dimethyl-1H-pyrazolo[3,4-b]pyridin-4-yl)-3-methyl-4,5,6,7-tetrahydro-1H-pyrazolo[4,3-c]pyridin-1-yl)methyl)bicyclo[2.2.2]octan-1-yl)-N-methyloxetan-3-amine]
